By GI50 is commonly meant the concentration at which growth is held to half of that of the control. One may read the TGI as the concentration at which net growth stops.

Where a SMILES comes first, the peptide text is derived from it. The star is where a group is joined. Palmitoyl = CCCCCCCCCCCCCCCC(=O)*

We go through 11 compounds from patent US20110195911A1, “SYNTHETIC ANALOGS OF THE JUXTAMEMBRANE DOMAIN OF IGF1R AND USES THEREOF” (THE UNITED STATES OF AMERICA,AS REPRESENTED BY THE …, priority 2008, published 2011).

For the assay, the system named is MCF-7 breast cancer cells. Briefly: MTT cell toxicity assay in MCF-7 breast cancer cells. The class given is cell-based. To be noted: MCF-7 cells, MTT; for GI50 / TGI: final 0.5% FBS, two days with compound; for TGI: concentration of total growth inhibition (cytostatic); for growth inhibition / potency in MCF-7 cells (in words): comparison with related peptides. The method, then: Cell Toxicity Assays: MCF-7 (breast cancer), T47D (breast cancer), Colo 205 (colon cancer), JM-1 (rat hepatoma), Sk Me1-2 (melanoma), PLC (human hepatoma), and HepG2 (human hepatoma) cells were obtained from American Type Cell Culture Collection. MCF-7 cells were grown in RPMI medium supplemented with 10% Fetal Bovine Serum. The rest of the cell lines were grown in DMEM medium supplemented with 10% Fetal Bovine Serum.
MTT 43-(4,5-Dimethylthiazol-2-yl)-2,5-diphenyltetrazolium) cell assay was performed using MCF-7 breast cancer cells. For the assay, cells were seeded into 96 well plates in medium containing 1% Fetal Bovine Serum and 100 μL of a cell suspension containing 5000 cells per well. Wells containing medium-only, and wells containing untreated cells, served as controls.
Seeded cells were allowed to attach and grow in the wells for 24 hours. A 5 mM stock solution of each peptide was made by dissolving approximately 1 mg of peptide in appropriate amount of DMSO. 2 mL dilutions were used to make 0.2 μM, 1.0 μM, 5.0 μM, and 10.0 μM concentration solutions of the compounds in serum-free medium. 100 μl, of the resulting 2× solutions were added to the corresponding wells to provide a final FBS concentration of 0.5% and 0.1 μM, 0.5 μM, 2.5 μM, and 5.0 μM dilutions of inhibitors. The cells were incubated with test compounds for two days. The control wells were given 100 μL of medium to ensure maximum similarity to the test wells so that all of the wells had 200 μL of medium during the growth period. An individual plate was made for Time Zero, to which the dye was added at the time of addition of compounds.
An alternative potency assay was used to test compounds in MCF-7 (breast cancer), T47D (breast cancer), Colo 205 (colon cancer), JM-1 (rat hepatoma), Sk MeI-2 (melanoma), PLC (human hepatoma), and HepG2 (human hepatoma) cells. Cells were suspended at a concentration of approximately 5000 cells per 100 μL of suspension in a 5% FBS RPMI medium. The cells were seeded into 96-count wells and incubated over night. After one day's incubation, the 5% FBS medium was aspirated and replaced with 100 μL of no serum RPMI medium containing 1 mg Bovine Serum Albumin (BSA) per 1 mL RPMI. Various concentrations of the test compounds were prepared by dilution in no-serum medium containing 1 mg BSA/mL. 75 μL of the test compound solutions were added to the wells, and the cells were allowed to incubate for 15-20 minutes, after which time 25 μL of human recombinant IGF-1 (Peprotech) solution was added to the wells to attain final concentrations of 10 ng IGF-1/mL medium. The control wells were given 175 μL of no-serum medium in addition to 25 μL of IGF-1 solution. An individual plate was made for time zero, in which the medium was also aspirated and replaced with 175 μL of no-serum medium and 25 μL of IGF-1. 15 μL of MTT dye was added and let incubate for 4 hours, after which time a stop stop solubilization solution was added. The stop solution lysed the cells and released the dye reduced by the remaining living cells. Absorbance of the wells at 544 nm was determined by a FLUOstar/POLARstar Galaxy (BMG Lab Technologies GmbH) microplate reader. The activity was calculated from the data using the formula: 100×[(T−T0)/(C−T0)] for T>T0 and 100×[(T−T0)/T0] for T<T0, wherein T0 corresponds to cell density at the time of drug addition, “T” is the optical density of the test well after a 48-h period of exposure to test drug, and “C” is the control optical density. The GI50 measures the growth inhibitory power of the test agent, and is defined as the concentration of test drug where 100×(T−T0)/(C−T0)=50. The TGI is the concentration of test drug where 100×(T−T0)/(C−T0)=0. Thus, the TGI signifies a cytostatic effect.
Background: Tetrazolium assays rely on reduction of a dye to a coloured formazan, in cell work by metabolically active cells.

For the compound `CCCCCCCCCCCCCCCC(=O)N[C@H](C(=O)N[C@@H](Cc1ccccc1)C(=O)N[C@@H](Cc1c[nH]cn1)C(=O)N[C@@H](CCCNC(=N)N)C(=O)N[C@@H](CCCCN)C(=O)N[C@@H](CCCNC(=N)N)C(=O)N[C@@H](CC(N)=O)C(=O)N[C@@H](CC(N)=O)C(=O)N[C@@H](CO)C(=O)N[C@@H](CCCNC(=N)N)C(=O)N[C@@H](CC(C)C)C(=O)NCC(=O)N[C@@H](CC(N)=O)C(=O)NCC(=O)N[C@H](C(=O)N[C@@H](CC(C)C)C(=O)N[C@@H](Cc1ccc(O)cc1)C(=O)N[C@@H](C)C(=O)N[C@@H](CO)C(=O)N[C@H](C(=O)N[C@@H](CC(N)=O)C(N)=O)C(C)C)C(C)C)C(C)C` [Peptide 24] (Palmitoyl-VFHRKRNNSRLGNGVLYASVN-NH2), the GI50 amounted to 100 ± 50 nM and the TGI was found to be 1100 ± 100 nM.

Regarding `CCCCCCCCCCCCCCCC(=O)N[C@@H](Cc1c[nH]cn1)C(=O)N[C@@H](CCCNC(=N)N)C(=O)N[C@@H](CCCCN)C(=O)N[C@@H](CCCNC(=N)N)C(=O)N[C@@H](CC(N)=O)C(=O)N[C@@H](CC(N)=O)C(=O)N[C@@H](CO)C(=O)N[C@@H](CCCNC(=N)N)C(=O)N[C@@H](CC(C)C)C(=O)NCC(N)=O` [Peptide 2, Pal-HRKRNNSRLG-NH2] (Palmitoyl-HRKRNNSRLG-NH2), the GI50 worked out at 1300 ± 50 nM and the TGI was >5000 nM.

On to `CCCCCCCCCCCCCCCC(=O)N[C@@H](CO)C(=O)N[C@@H](CCCNC(=N)N)C(=O)N[C@@H](CC(C)C)C(=O)NCC(=O)N[C@@H](CC(N)=O)C(=O)NCC(=O)N[C@H](C(=O)N[C@@H](CC(C)C)C(=O)N[C@@H](Cc1ccc(O)cc1)C(N)=O)C(C)C` [Peptide 19, Pal-SRLGNGVLY-NH2] (Palmitoyl-SRLGNGVLY-NH2), for which the GI50 was 150 ± 50 nM, the TGI turned out to be 2000 ± 100 nM and the “growth inhibition / potency in MCF-7 cells (in words)” value is recorded as “gradual reduction in potency”.

Turning to `CCCCCCCCCCCCCCCC(=O)N[C@@H](CCCCN)C(=O)N[C@@H](CCCNC(=N)N)C(=O)N[C@@H](CC(N)=O)C(=O)N[C@@H](CC(N)=O)C(=O)N[C@@H](CO)C(=O)N[C@@H](CCCNC(=N)N)C(=O)N[C@@H](CC(C)C)C(=O)NCC(=O)N[C@@H](CC(N)=O)C(=O)NCC(=O)N[C@H](C(=O)N[C@@H](CC(C)C)C(=O)N[C@@H](Cc1ccc(O)cc1)C(N)=O)C(C)C` [Peptide 27, Pal-KRNNSRLGNGVLY-NH2] (Palmitoyl-KRNNSRLGNGVLY-NH2), the GI50 came to 1100 ± 60 nM and the TGI was 2500 ± 500 nM.

On to `CCCCCCCCCCCCCCCC(=O)N[C@@H](Cc1c[nH]cn1)C(=O)N[C@@H](CCCNC(=N)N)C(=O)N[C@@H](CCCCN)C(=O)N[C@@H](CCCNC(=N)N)C(=O)N[C@@H](CC(N)=O)C(=O)N[C@@H](CC(N)=O)C(=O)N[C@@H](CO)C(=O)N[C@@H](CCCNC(=N)N)C(=O)N[C@@H](CC(C)C)C(=O)NCC(=O)N[C@@H](CC(N)=O)C(=O)NCC(=O)N[C@H](C(=O)N[C@@H](CC(C)C)C(=O)N[C@@H](Cc1ccc(O)cc1)C(=O)N[C@@H](C)C(=O)N[C@@H](CO)C(=O)N[C@H](C(=O)N[C@@H](CC(N)=O)C(=O)N1CCC[C@H]1C(N)=O)C(C)C)C(C)C` [Peptide 23] (Palmitoyl-HRKRNNSRLGNGVLYASVNP-NH2), for which the GI50 is 100 ± 50 nM, the TGI is >5000 nM and the “growth inhibition / potency in MCF-7 cells (in words)” value is given as “increased the potency”.

As to `CCCCCCCCCCCCCCCC(=O)N[C@@H](CCCNC(=N)N)C(=O)N[C@@H](CC(N)=O)C(=O)N[C@@H](CC(N)=O)C(=O)N[C@@H](CO)C(=O)N[C@@H](CCCNC(=N)N)C(=O)N[C@@H](CC(C)C)C(=O)NCC(=O)N[C@@H](CC(N)=O)C(=O)NCC(=O)N[C@H](C(=O)N[C@@H](CC(C)C)C(=O)N[C@@H](Cc1ccc(O)cc1)C(=O)N[C@@H](C)C(=O)N[C@@H](CO)C(N)=O)C(C)C` [Peptide 34, Pal-RNNSRLGNGVLYAS-NH2] (Palmitoyl-RNNSRLGNGVLYAS-NH2), the GI50 was 40 ± 1 nM and the TGI was >5000 nM.

With `CCCCCCCCCCCCCCCC(=O)N[C@@H](CCCNC(=N)N)C(=O)N[C@@H](CC(N)=O)C(=O)N[C@@H](CC(N)=O)C(=O)N[C@@H](CO)C(=O)N[C@@H](CCCNC(=N)N)C(=O)N[C@@H](CC(C)C)C(=O)NCC(=O)N[C@@H](CC(N)=O)C(=O)NCC(=O)N[C@H](C(=O)N[C@@H](CC(C)C)C(=O)N[C@@H](Cc1ccc(O)cc1)C(=O)N[C@@H](C)C(N)=O)C(C)C` [Peptide 33, Pal-RNNSRLGNGVLYA-NH2] (Palmitoyl-RNNSRLGNGVLYA-NH2), the GI50 worked out at 100 ± 50 nM and the TGI was >5000 nM.

As to `CCCCCCCCCCCCCCCC(=O)N[C@@H](Cc1c[nH]cn1)C(=O)N[C@@H](CCCNC(=N)N)C(=O)N[C@@H](CCCCN)C(=O)N[C@@H](CCCNC(=N)N)C(=O)N[C@@H](CC(N)=O)C(=O)N[C@@H](CC(N)=O)C(=O)N[C@@H](CO)C(=O)N[C@@H](CCCNC(=N)N)C(=O)N[C@@H](CC(C)C)C(=O)NCC(=O)N[C@@H](CC(N)=O)C(=O)NCC(=O)N[C@H](C(=O)N[C@@H](CC(C)C)C(=O)N[C@@H](Cc1ccc(O)cc1)C(=O)N[C@@H](C)C(=O)N[C@@H](CO)C(N)=O)C(C)C` [Peptide 7, Pal-HRKRNNSRLGNGVLYAS-NH2] (Palmitoyl-HRKRNNSRLGNGVLYAS-NH2), the GI50 was 1450 ± 100 nM and the TGI turned out to be 4100 ± 300 nM.

In the case of `CCCCCCCCCCCCCCCC(=O)N[C@@H](Cc1c[nH]cn1)C(=O)N[C@@H](CCCNC(=N)N)C(=O)N[C@@H](CCCCN)C(=O)N[C@@H](CCCNC(=N)N)C(=O)N[C@@H](CC(N)=O)C(=O)N[C@@H](CC(N)=O)C(=O)N[C@@H](CO)C(=O)N[C@@H](CCCNC(=N)N)C(=O)N[C@@H](CC(C)C)C(=O)NCC(=O)N[C@@H](CC(N)=O)C(=O)NCC(=O)N[C@H](C(=O)N[C@@H](CC(C)C)C(=O)N[C@@H](Cc1ccc(O)cc1)C(=O)N[C@@H](C)C(=O)N[C@@H](CO)C(=O)N[C@H](C(=O)N[C@@H](CC(N)=O)C(N)=O)C(C)C)C(C)C` [Peptide 3, Pal-HRKRNNSRLGNGVLYASVN-NH2] (Palmitoyl-HRKRNNSRLGNGVLYASVN-NH2), the “cell killing activity (in words)” value was “exhibited cell killing activity” and the TGI is 1550 ± 100 nM.

As for `CCCCCCCCCCCCCCCC(=O)N[C@@H](Cc1c[nH]cn1)C(=O)N[C@@H](CCCNC(=N)N)C(=O)N[C@@H](CCCCN)C(=O)N[C@@H](CCCNC(=N)N)C(=O)N[C@@H](CC(N)=O)C(=O)N[C@@H](CC(N)=O)C(=O)N[C@@H](CO)C(=O)N[C@@H](CCCNC(=N)N)C(=O)N[C@@H](CC(C)C)C(=O)NCC(=O)N[C@@H](CC(N)=O)C(=O)NCC(N)=O` [Peptide 1, Pal-HRKRNNSRLGNG-NH2] (Palmitoyl-HRKRNNSRLGNG-NH2), the GI50 came to 1800 ± 50 nM and the TGI is >5000 nM.

On to `CCCCCCCCCCCCCCCC(=O)N[C@@H](Cc1c[nH]cn1)C(=O)N[C@@H](CCCNC(=N)N)C(=O)N[C@@H](CCCCN)C(=O)N[C@@H](CCCNC(=N)N)C(=O)N[C@@H](CC(N)=O)C(=O)N[C@@H](CC(N)=O)C(=O)N[C@@H](CO)C(=O)N[C@@H](CCCNC(=N)N)C(=O)N[C@@H](CC(C)C)C(=O)NCC(=O)N[C@@H](CC(N)=O)C(=O)NCC(=O)N[C@H](C(N)=O)C(C)C` [Peptide 11, Pal-HRKRNNSRLGNGV-NH2] (Palmitoyl-HRKRNNSRLGNGV-NH2), for which the GI50 was 2500 ± 100 nM and the TGI was >5000 nM.
